# Results as given in US10988478B1, “Pyrazolo[1,5a]pyrimidine derivatives as IRAK4 modulators” (Genentech, Inc., priority 2015, dated 2021).
# Target: human IRAK4 (Homo sapiens (Human), UniProt Q9NWZ3)
# Assay: IRAK4 kinase inhibition, Transcreener fluorescence polarization ADP assay
# Format: biochemical
# Conditions: recombinant full-length His6-IRAK4; 125 uM ATP; 90 min; Ki computed using ATP Km 642 uM
# Experimental: Compounds were assayed for inhibition of human IRAK4 and IRAK1 catalytic activity using recombinant enzyme produced from insect cells. Full-length IRAK4 protein, carrying an N-terminal His6-Tag, was obtained from Life Technologies (Carlsbad, Calif., USA). The IRAK1 construct was produced internally and was comprised of IRAK1 residues Arg194 to Ser712, preceded by an NH2-terminal His6 tag and the coding sequence for glutathione-S-transferase.
# human IRAK4, sequence (Q9NWZ3 whole entry): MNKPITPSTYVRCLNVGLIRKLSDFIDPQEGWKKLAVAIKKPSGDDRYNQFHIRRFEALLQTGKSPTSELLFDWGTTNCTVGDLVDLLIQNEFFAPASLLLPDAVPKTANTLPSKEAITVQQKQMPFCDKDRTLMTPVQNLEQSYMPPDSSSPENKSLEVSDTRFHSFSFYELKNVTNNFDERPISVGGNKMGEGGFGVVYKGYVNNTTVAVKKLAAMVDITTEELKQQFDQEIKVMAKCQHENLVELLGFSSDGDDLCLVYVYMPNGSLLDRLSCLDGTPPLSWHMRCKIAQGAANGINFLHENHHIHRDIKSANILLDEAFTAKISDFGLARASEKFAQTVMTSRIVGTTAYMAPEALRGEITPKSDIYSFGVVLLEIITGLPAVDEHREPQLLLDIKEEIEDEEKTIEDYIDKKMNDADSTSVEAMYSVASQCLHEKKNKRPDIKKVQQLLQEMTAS
row,Ki,SMILES
1,5.1 nM,"CC1(CO)Cc2cc(NC(=O)c3cnn4cccnc34)c(N3CCC(F)(F)CC3)cc2O1 (centres unmarked) [Example 26, N-[6-(4,4-Difluoro-1-piperidyl)-2-(hydroxymethyl)-2-methyl-3H-benzofuran-5-yl]pyrazolo[1,5-a]pyrimidine-3-carboxamide]"
2,9 nM,"Cc1cnc2c(C(=O)Nc3cc4c(cc3N3CCOCC3)O[C@@](C)(CO)C4)cnn2c1 [Example 29, (R)—N-(2-(hydroxymethyl)-2-methyl-6-morpholino-2,3-dihydrobenzofuran-5-yl)-6-methylpyrazolo[1,5-a]pyrimidine-3-carboxamide]"
3,32 nM,"Cc1cnc2c(C(=O)Nc3cc4c(cc3N3CCOCC3)O[C@](C)(CO)C4)cnn2c1 [Example 30, (S)—N-(2-(hydroxymethyl)-2-methyl-6-morpholino-2,3-dihydrobenzofuran-5-yl)-6-methylpyrazolo[1,5-a]pyrimidine-3-carboxamide]"
4,5 nM,"CC1(C)Cc2cc(NC(=O)c3cnn4cccnc34)c(N3CCOCC3)cc2O1 [Example 33, N-(2,2-dimethyl-6-morpholino-2,3-dihydrobenzofuran-5-yl)pyrazolo[1,5-a]pyrimidine-3-carboxamide]"
5,38 nM,"COc1cc2c(cc1NC(=O)c1cnn3cccnc13)CC(C)(C)O2 [Example 34, N-(6-Methoxy-2,2-dimethyl-2,3-dihydrobenzofuran-5-yl)pyrazolo[1,5-a]pyrimidine-3-carboxamide]"
6,690 nM,"O=C(Nc1cc2c(cc1N1CCOCC1)OCCCN2)c1cnn2cccnc12 [Example 35, N-(8-Morpholino-2,3,4,5-tetrahydrobenzo[b][1,4]oxazepin-7-yl)pyrazolo[1,5-a]pyrimidine-3-carboxamide]"
7,150 nM,"CC1(C)CN(c2cc3c(cc2NC(=O)c2cnn4cccnc24)C[C@](C)(CO)O3)CCO1 [Example 36, (R)—N-(6-(2,2-dimethylmorpholino)-2-(hydroxymethyl)-2-methyl-2,3-dihydrobenzofuran-5-yl)pyrazolo[1,5-a]pyrimidine-3-carboxamide]"
8,370 nM,"CC1(C)CN(c2cc3c(cc2NC(=O)c2cnn4cccnc24)C[C@@](C)(CO)O3)CCO1 [Example 37, (S)—N-(6-(2,2-dimethylmorpholino)-2-(hydroxymethyl)-2-methyl-2,3-dihydrobenzofuran-5-yl)pyrazolo[1,5-a]pyrimidine-3-carboxamide]"
9,360 nM,"CC1(C(=O)O)Cc2cc(NC(=O)c3cnn4cccnc34)c(N3CCOCC3)cc2O1 (centres unmarked) [Example 38, 2-Methyl-6-morpholino-5-(pyrazolo[1,5-a]pyrimidine-3-carboxamido)-2,3-dihydrobenzofuran-2-carboxylicacid]"
10,11 nM,"O=C(Nc1cc2c(cc1N1CCOCC1)OC1(CCOCC1)C2)c1cnn2cccnc12 [Example 39, N-(6-Morpholino-2′,3′,5′,6′-tetrahydro-3H-spiro[benzofuran-2,4′-pyran]-5-yl)pyrazolo[1,5-a]pyrimidine-3-carboxamide]"
11,1 nM,"CC1(C)Cc2cc(NC(=O)c3cnn4cccnc34)c(N3CCC(F)(CO)CC3)cc2O1 [Example 40, N-(6-(4-Fluoro-4-(hydroxymethyl)piperidin-1-yl)-2,2-dimethyl-2,3-dihydrobenzofuran-5-yl)pyrazolo[1,5-a]pyrimidine-3-carboxamide]"
12,84 nM,"CC1(C)Cc2cc(NC(=O)c3cnn4cccnc34)c(N3CCS(=O)(=O)CC3)cc2O1 [Example 41, N-[6-(1,1-Dioxo-thiomorpholin-4-yl)-2,2-dimethyl-2,3-dihydro-1-benzofuran-5-yl]pyrazolo[1,5-a]pyrimidine-3-carboxamide]"
13,200 nM,"C[C@]1(CO)Cc2cc(NC(=O)c3cnn4cccnc34)c(N3C[C@H]4C[C@@H]3CO4)cc2O1 [Example 42, N—((R)-6-((1R,4R)-2-Oxa-5-azabicyclo[2.2.1]heptan-5-yl)-2-(hydroxymethyl)-2-methyl-2,3-dihydrobenzofuran-5-yl)pyrazolo[1,5-a]pyrimidine-3-carboxamide]"
14,130 nM,"C[C@@]1(CO)Cc2cc(NC(=O)c3cnn4cccnc34)c(N3C[C@H]4C[C@@H]3CO4)cc2O1 [Example 43, N—((S)-6-((1R,4R)-2-Oxa-5-azabicyclo[2.2.1]heptan-5-yl)-2-(hydroxymethyl)-2-methyl-2,3-dihydrobenzofuran-5-yl)pyrazolo[1,5-a]pyrimidine-3-carboxamide]"
15,180 nM,"C[C@]1(CO)Cc2cc(NC(=O)c3cnn4cccnc34)c(N3C[C@@H]4C[C@H]3CO4)cc2O1 [Example 47, N—((R)-6-((1S,4S)-2-Oxa-5-azabicyclo[2.2.1]heptan-5-yl)-2-(hydroxymethyl)-2-methyl-2,3-dihydrobenzofuran-5-yl)pyrazolo[1,5-a]pyrimidine-3-carboxamide]"
16,190 nM,"CNC(=O)[C@]1(C)Cc2cc(NC(=O)c3cnn4cccnc34)c(N3CCOCC3)cc2O1 [Example 48, (S)—N-(2-Methyl-2-(methylcarbamoyl)-6-morpholino-2,3-dihydrobenzofuran-5-yl)pyrazolo[1,5-a]pyrimidine-3-carboxamide]"

# Second part, the compound before the results:
row,SMILES,Ki
1,"O=C(Nc1cc2c(cc1N1CCOCC1)OCCN2)c1cnn2cccnc12 [Example 9, N-(7-Morpholino-3,4-dihydro-2H-benzo[b][1,4]oxazin-6-yl)pyrazolo[1,5-a]pyrimidine-3-carboxamide]",98 nM
2,"CC1COc2cc(N3CCOCC3)c(NC(=O)c3cnn4cccnc34)cc2N1 (centres unmarked) [Example 10, N-(3-Methyl-7-morpholino-3,4-dihydro-2H-benzo[b][1,4]oxazin-6-yl)pyrazolo[1,5-a]pyrimidine-3-carboxamide]",270 nM
3,"CC1CNc2cc(NC(=O)c3cnn4cccnc34)c(N3CCOCC3)cc2O1 (centres unmarked) [Example 11, N-(2-Methyl-7-morpholino-3,4-dihydro-2H-benzo[b][1,4]oxazin-6-yl)pyrazolo[1,5-a]pyrimidine-3-carboxamide]",72 nM
4,"Cc1cnc2c(C(=O)Nc3cc4c(cc3N3CCC(CO)CC3)OC(C)(C)C4)cnn2c1 [Example 12, N-(6-(4-(Hydroxymethyl)piperidin-1-yl)-2,2-dimethyl-2,3-dihydrobenzofuran-5-yl)-6-methylpyrazolo[1,5-a]pyrimidine-3-carboxamide]",2 nM
5,"CC1(C)Cc2cc(NC(=O)c3cnn4cccnc34)c(N3CC[C@H](CO)C3)cc2O1 [Example 13, (S)—N-(6-(3-(hydroxymethyl)pyrrolidin-1-yl)-2,2-dimethyl-2,3-dihydrobenzofuran-5-yl)pyrazolo[1,5-a]pyrimidine-3-carboxamide]",6.7 nM
6,"CC1Cc2cc(NC(=O)c3cnn4cccnc34)c(N3CCOCC3)cc2O1 (centres unmarked) [Example 14, N-(2-Methyl-6-morpholino-2,3-dihydrobenzofuran-5-yl)pyrazolo[1,5-a]pyrimidine-3-carboxamide]",19 nM
7,"CC1(C)Cc2cc(NC(=O)c3cnn4cccnc34)c(N3CC[C@@H](CO)C3)cc2O1 [Example 15, (R)—N-(6-(3-(Hydroxymethyl)pyrrolidin-1-yl)-2,2-dimethyl-2,3-dihydrobenzofuran-5-yl)pyrazolo[1,5-a]pyrimidine-3-carboxamide]",12 nM
8,"Cc1cnc2c(C(=O)Nc3cc4c(cc3N3CCC(CO)CC3)OC(C)(CO)C4)cnn2c1 (centres unmarked) [Example 16, N-(2-(Hydroxymethyl)-6-(4-(hydroxymethyl)piperidin-1-yl)-2-methyl-2,3-dihydrobenzofuran-5-yl)-6-methylpyrazolo[1,5-a]pyrimidine-3-carboxamide]",1.9 nM
9,"CC1(C)CN(c2cc3c(cc2NC(=O)c2cnn4cccnc24)CC(C)(CO)O3)CCO1 (centres unmarked) [Example 17, N-(6-(2,2-Dimethylmorpholino)-2-(hydroxymethyl)-2-methyl-2,3-dihydrobenzofuran-5-yl)pyrazolo[1,5-a]pyrimidine-3-carboxamide]",180 nM
10,"CC1(CO)CCN(c2cc3c(cc2NC(=O)c2cnn4cccnc24)CC(C)(C)O3)C1 (centres unmarked) [Example 18, N-(6-(3-(Hydroxymethyl)-3-methylpyrrolidin-1-yl)-2,2-dimethyl-2,3-dihydrobenzofuran-5-yl)pyrazolo[1,5-a]pyrimidine-3-carboxamide]",21 nM
11,"CC1(CO)Cc2cc(NC(=O)c3cnn4cccnc34)c(N3CCN(CC(F)F)CC3)cc2O1 (centres unmarked) [Example 19, N-[6-[4-(2,2-Difluoroethyl)piperazin-1-yl]-2-(hydroxymethyl)-2-methyl-3H-benzofuran-5-yl]pyrazolo[1,5-a]pyrimidine-3-carboxamide]",3.3 nM
12,"CNC[C@H]1OC[C@@H](c2cc3c(cc2NC(=O)c2cnn4cccnc24)CC(C)(C)O3)CO1 [Example 20, Cis-N-[2,2-dimethyl-6-[2-(methylaminomethyl)-1,3-dioxan-5-yl]-3H-benzofuran-5-yl]pyrazolo[1,5-a]pyrimidine-3-carboxamide]",780 nM
13,"CCC1(C)Cc2cc(NC(=O)c3cnn4cccnc34)c(N3CCOCC3)cc2O1 (centres unmarked) [Example 21, N-(2-Ethyl-2-methyl-6-morpholino-2,3-dihydrobenzofuran-5-yl)pyrazolo[1,5-a]pyrimidine-3-carboxamide]",6.4 nM
14,"CN(C)C(=O)C1(C)Cc2cc(NC(=O)c3cnn4cccnc34)c(N3CCOCC3)cc2O1 (centres unmarked) [Example 23, N-(2-(Dimethylcarbamoyl)-2-methyl-6-morpholino-2,3-dihydrobenzofuran-5-yl)pyrazolo[1,5-a]pyrimidine-3-carboxamide]",31 nM
15,"CC1(C)Cc2cc(NC(=O)c3cnn4cccnc34)c(N3CCC(C(N)C(F)(F)F)CC3)cc2O1 (centres unmarked) [Example 24, N-[6-[4-(1-Amino-2,2,2-trifluoro-ethyl)-1-piperidyl]-2,2-dimethyl-3H-benzofuran-5-yl]pyrazolo[1,5-a]pyrimidine-3-carboxamide]",2.9 nM
16,"COCC1(C)Cc2cc(NC(=O)c3cnn4cccnc34)c(N3CCOCC3)cc2O1 (centres unmarked) [Example 25, N-(2-(Methoxymethyl)-2-methyl-6-morpholino-2,3-dihydrobenzofuran-5-yl)pyrazolo[1,5-a]pyrimidine-3-carboxamide]",10 nM
